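Compound exposure: 48 hours, 5 concentrations, 96-well plates. At the GI50, growth is halved. TGI is the concentration that stops growth completely.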
What was measured:
Test in all cases: growth of human tumour cells (NCI), 48 h
KM12 colon = tested on: KM12 colon
SF-268 CNS = tested on: SF-268 CNS
SR leukemia = tested on: SR leukemia
COLO 205 colon = tested on: COLO 205 colon
786-0 renal = tested on: 786-0 renal
PC-3 prostate = tested on: PC-3 prostate
U251 CNS = tested on: U251 CNS
NCI/ADR-RES ovarian = tested on: NCI/ADR-RES ovarian
MDA-MB-435 = tested on: MDA-MB-435
HT29 colon = tested on: HT29 colon
RXF 393 renal = tested on: RXF 393 renal
HOP-62 NSCLC = tested on: HOP-62 NSCLC
ACHN renal = tested on: ACHN renal
M14 melanoma = tested on: M14 melanoma
LOX IMVI melanoma = tested on: LOX IMVI melanoma
IGROV1 ovarian = tested on: IGROV1 ovarian
NCI-H522 lung = tested on: NCI-H522 lung
MALME-3M melanoma = tested on: MALME-3M melanoma
A549 NSCLC = tested on: A549 NSCLC
MCF7 breast = tested on: MCF7 breast
SK-OV-3 ovarian = tested on: SK-OV-3 ovarian
SNB-19 CNS = tested on: SNB-19 CNS
SNB-75 CNS = tested on: SNB-75 CNS
HCT-15 colon = tested on: HCT-15 colon
BT-549 breast = tested on: BT-549 breast
SW-620 colon = tested on: SW-620 colon
OVCAR-8 ovarian = tested on: OVCAR-8 ovarian
DU-145 prostate = tested on: DU-145 prostate
SK-MEL-5 melanoma = tested on: SK-MEL-5 melanoma
SN12C renal = tested on: SN12C renal
SK-MEL-28 melanoma = tested on: SK-MEL-28 melanoma
SF-295 CNS = tested on: SF-295 CNS
SF-539 CNS = tested on: SF-539 CNS
NCI-H226 lung = tested on: NCI-H226 lung
NCI-H23 lung = tested on: NCI-H23 lung
EKVX NSCLC = tested on: EKVX NSCLC
TK-10 renal = tested on: TK-10 renal
HOP-92 NSCLC = tested on: HOP-92 NSCLC
UO-31 renal = tested on: UO-31 renal
HCT-116 colon = tested on: HCT-116 colon
A498 renal = tested on: A498 renal
HL-60(TB) leukemia = tested on: HL-60(TB) leukemia
HS 578T breast = tested on: HS 578T breast
SK-MEL-2 melanoma = tested on: SK-MEL-2 melanoma
NCI-H460 lung = tested on: NCI-H460 lung
OVCAR-3 ovarian = tested on: OVCAR-3 ovarian
T-47D breast = tested on: T-47D breast
HCC-2998 colon = tested on: HCC-2998 colon
CCRF-CEM leukemia = tested on: CCRF-CEM leukemia
MOLT-4 leukemia = tested on: MOLT-4 leukemia
OVCAR-5 ovarian = tested on: OVCAR-5 ovarian
RPMI-8226 leukemia = tested on: RPMI-8226 leukemia
UACC-62 melanoma = tested on: UACC-62 melanoma
UACC-257 melanoma = tested on: UACC-257 melanoma
OVCAR-4 ovarian = tested on: OVCAR-4 ovarian
MDA-MB-231 breast = tested on: MDA-MB-231 breast
K-562 leukemia = tested on: K-562 leukemia
CAKI-1 renal = tested on: CAKI-1 renal

## COc1ccc(-n2c(-c3ccc(NC(=O)CCCl)cc3)nnc2-c2cc(OC)c(OC)c(OC)c2)cc1
KM12 colon
  GI50: 2.35 µM
  TGI: 7.6 µM
SF-268 CNS
  GI50: 4.09 µM
  TGI: > 14.3 µM
SR leukemia
  GI50: 3.12 µM
  TGI: 12.7 µM
COLO 205 colon
  GI50: 2.02 µM
  TGI: 4.75 µM
786-0 renal
  GI50: 12.5 µM
  TGI: > 14.3 µM
PC-3 prostate
  GI50: 4.45 µM
  TGI: > 14.3 µM
U251 CNS
  GI50: 3.69 µM
  TGI: 13.5 µM
NCI/ADR-RES ovarian
  GI50: 4.55 µM
  TGI: > 14.3 µM
MDA-MB-435
  GI50: 4.4 µM
  TGI: > 14.3 µM
HT29 colon
  GI50: 3.03 µM
  TGI: 11.2 µM
RXF 393 renal
  GI50: 2.44 µM
  TGI: 5.02 µM
HOP-62 NSCLC
  GI50: 3.49 µM
  TGI: 13.4 µM
ACHN renal
  GI50: 2.21 µM
  TGI: 8.4 µM
M14 melanoma
  GI50: 4.27 µM
  TGI: > 14.3 µM
LOX IMVI melanoma
  GI50: 4.28 µM
  TGI: > 14.3 µM
IGROV1 ovarian
  GI50: 2.9 µM
  TGI: > 14.3 µM
NCI-H522 lung
  GI50: 4.14 µM
  TGI: > 14.3 µM
MALME-3M melanoma
  GI50: 4 µM
  TGI: > 14.3 µM
A549 NSCLC
  GI50: 3.89 µM
  TGI: 11.2 µM
MCF7 breast
  GI50: 3.15 µM
  TGI: > 14.3 µM
SK-OV-3 ovarian
  GI50: 4.34 µM
  TGI: > 14.3 µM
SNB-19 CNS
  GI50: 4.33 µM
  TGI: > 14.3 µM
SNB-75 CNS
  GI50: 3.46 µM
  TGI: > 14.3 µM
HCT-15 colon
  GI50: 3.68 µM
  TGI: > 14.3 µM
BT-549 breast
  GI50: 3.14 µM
  TGI: 13.8 µM
SW-620 colon
  GI50: 4.55 µM
  TGI: > 14.3 µM
OVCAR-8 ovarian
  GI50: 7.87 µM
  TGI: > 14.3 µM
DU-145 prostate
  GI50: 2.77 µM
  TGI: 8.67 µM
SK-MEL-5 melanoma
  GI50: 3.46 µM
  TGI: 10.3 µM
SN12C renal
  GI50: 7.33 µM
  TGI: > 14.3 µM
SK-MEL-28 melanoma
  GI50: 3.56 µM
  TGI: 14 µM
SF-295 CNS
  GI50: 5.02 µM
  TGI: > 14.3 µM
SF-539 CNS
  GI50: 3.04 µM
  TGI: 10.3 µM
NCI-H226 lung
  GI50: 10.8 µM
  TGI: > 14.3 µM
NCI-H23 lung
  GI50: 3.66 µM
  TGI: > 14.3 µM
EKVX NSCLC
  GI50: 3 µM
  TGI: > 14.3 µM
TK-10 renal
  GI50: 4.97 µM
  TGI: 11.9 µM
HOP-92 NSCLC
  GI50: 4.1 µM
  TGI: > 14.3 µM
UO-31 renal
  GI50: 1.94 µM
  TGI: 4.37 µM
HCT-116 colon
  GI50: 2.81 µM
  TGI: 8.54 µM
A498 renal
  GI50: 3.82 µM
  TGI: 12.8 µM
HL-60(TB) leukemia
  GI50: 1.9 µM
  TGI: 6.02 µM
HS 578T breast
  GI50: 3.89 µM
  TGI: 12.6 µM
SK-MEL-2 melanoma
  GI50: 3.01 µM
  TGI: 7.16 µM
NCI-H460 lung
  GI50: 2.5 µM
  TGI: 7.33 µM
OVCAR-3 ovarian
  GI50: 2.58 µM
  TGI: 7.78 µM
T-47D breast
  GI50: 3.01 µM
  TGI: 14 µM
HCC-2998 colon
  GI50: 3.05 µM
  TGI: 7.07 µM
CCRF-CEM leukemia
  GI50: 4.53 µM
  TGI: > 14.3 µM
MOLT-4 leukemia
  GI50: 3.4 µM
  TGI: 10.6 µM
OVCAR-5 ovarian
  GI50: 6.85 µM
  TGI: > 14.3 µM
RPMI-8226 leukemia
  GI50: 2.85 µM
  TGI: 8.49 µM
UACC-62 melanoma
  GI50: 2.54 µM
  TGI: 6.92 µM
UACC-257 melanoma
  GI50: 6.23 µM
  TGI: > 14.3 µM
OVCAR-4 ovarian
  GI50: 4.1 µM
  TGI: > 14.3 µM
MDA-MB-231 breast
  GI50: 3.56 µM
  TGI: > 14.3 µM

## C[C@@H](Oc1cc(-c2cnn(C3CCNCC3)c2)cnc1N)c1c(Cl)ccc(F)c1Cl
KM12 colon
  GI50: 0.053 µM
  TGI: > 10 µM
SF-268 CNS
  GI50: 3.48 µM
  TGI: > 10 µM
SR leukemia
  GI50: 0.0453 µM
  TGI: 1.09 µM
COLO 205 colon
  GI50: 0.42 µM
  TGI: 1.57 µM
786-0 renal
  GI50: 2.72 µM
  TGI: 8.94 µM
PC-3 prostate
  GI50: 1.35 µM
  TGI: > 10 µM
K-562 leukemia
  GI50: 0.267 µM
  TGI: 2.3 µM
U251 CNS
  GI50: 1.98 µM
  TGI: 8.74 µM
NCI/ADR-RES ovarian
  GI50: 7.38 µM
  TGI: > 10 µM
MDA-MB-435
  GI50: 0.715 µM
  TGI: > 10 µM
HT29 colon
  GI50: 0.437 µM
  TGI: 2.31 µM
RXF 393 renal
  GI50: 1.36 µM
  TGI: 3.11 µM
HOP-62 NSCLC
  GI50: 2.57 µM
  TGI: > 10 µM
ACHN renal
  GI50: 2.97 µM
  TGI: > 10 µM
M14 melanoma
  GI50: 1.08 µM
  TGI: 2.65 µM
LOX IMVI melanoma
  GI50: 1.17 µM
  TGI: 2.64 µM
IGROV1 ovarian
  GI50: 2.17 µM
  TGI: > 10 µM
NCI-H522 lung
  GI50: 1.3 µM
  TGI: 3.2 µM
MALME-3M melanoma
  GI50: 1.22 µM
  TGI: 2.61 µM
A549 NSCLC
  GI50: 0.947 µM
  TGI: > 10 µM
MCF7 breast
  GI50: 0.457 µM
  TGI: 2.43 µM
SK-OV-3 ovarian
  GI50: 5.85 µM
  TGI: > 10 µM
SNB-19 CNS
  GI50: 2.24 µM
  TGI: > 10 µM
HCT-15 colon
  GI50: 2.4 µM
  TGI: > 10 µM
BT-549 breast
  GI50: 5.24 µM
  TGI: > 10 µM
SW-620 colon
  GI50: 0.435 µM
  TGI: > 10 µM
OVCAR-8 ovarian
  GI50: 2.86 µM
  TGI: > 10 µM
DU-145 prostate
  GI50: 2.74 µM
  TGI: > 10 µM
SK-MEL-5 melanoma
  GI50: 1.47 µM
  TGI: 2.84 µM
SN12C renal
  GI50: 1.8 µM
  TGI: > 10 µM
SK-MEL-28 melanoma
  GI50: 1.61 µM
  TGI: 3.54 µM
SF-295 CNS
  GI50: 0.276 µM
  TGI: > 10 µM
SF-539 CNS
  GI50: 1.8 µM
  TGI: 3.5 µM
NCI-H226 lung
  GI50: 0.701 µM
  TGI: > 10 µM
NCI-H23 lung
  GI50: 0.93 µM
  TGI: > 10 µM
EKVX NSCLC
  GI50: 8.07 µM
  TGI: > 10 µM
TK-10 renal
  GI50: 2.76 µM
  TGI: > 10 µM
HOP-92 NSCLC
  GI50: 0.236 µM
  TGI: 2.62 µM
UO-31 renal
  GI50: 1.08 µM
  TGI: 4.74 µM
HCT-116 colon
  GI50: 0.619 µM
  TGI: 4.77 µM
A498 renal
  GI50: 1.51 µM
  TGI: 5.34 µM
HL-60(TB) leukemia
  GI50: 0.398 µM
  TGI: 1.9 µM
HS 578T breast
  GI50: 0.966 µM
  TGI: 6.25 µM
SK-MEL-2 melanoma
  GI50: 1.82 µM
  TGI: 4.54 µM
CAKI-1 renal
  GI50: 3.39 µM
  TGI: > 10 µM
NCI-H460 lung
  GI50: 0.662 µM
  TGI: 9.32 µM
OVCAR-3 ovarian
  GI50: 3.26 µM
  TGI: > 10 µM
T-47D breast
  GI50: 1.71 µM
  TGI: 7.9 µM
HCC-2998 colon
  GI50: 2.28 µM
  TGI: > 10 µM
CCRF-CEM leukemia
  GI50: 0.621 µM
  TGI: 5.13 µM
MOLT-4 leukemia
  GI50: 0.701 µM
  TGI: 4.39 µM
OVCAR-5 ovarian
  GI50: 1.14 µM
  TGI: > 10 µM
RPMI-8226 leukemia
  GI50: 1.91 µM
  TGI: 8.64 µM
UACC-62 melanoma
  GI50: 1.54 µM
  TGI: 4.66 µM
UACC-257 melanoma
  GI50: 1.52 µM
  TGI: 3.15 µM
OVCAR-4 ovarian
  TGI: > 10 µM
MDA-MB-231 breast
  GI50: 1.17 µM
  TGI: 6.5 µM

— PubChem BioAssay (NCI)
